Results reported in BigSolDB 2.1.

CCCCCc1ccc2c(c1)C(=O)c1ccccc1C2=O
solubility (mole fraction)
Conditions	288.15 K	293.15 K	298.15 K	303.15 K	308.15 K	313.15 K	318.15 K	323.15 K
in 2-butanone	0.0341	0.0431	0.0513	0.0587	0.0683	0.0828	0.105	0.129
in MIBK	0.0433	0.0539	0.0601	0.0676	0.0744	0.0836	0.104	0.126
in acetone	0.0225	0.0299	0.0376	0.0443	0.0517	–	0.0815	0.105
in acetonitrile	0.00299	0.00478	0.00811	0.0127	0.0203	–	0.051	0.0786
in ethanol	0.0029	0.00392	0.00531	0.00725	0.00988	0.0145	0.0195	0.0265
in ethyl acetate	0.0501	0.0583	0.0663	0.0761	0.088	0.101	0.12	0.151
in isopropyl acetate	0.0522	0.0598	0.0708	0.0842	0.0974	0.114	0.137	0.163
in methanol	0.00131	0.00199	0.00271	0.00364	0.00502	0.00682	0.00928	0.0131
in n-butanol	0.00826	0.0111	0.0154	0.021	0.0275	0.0346	0.0446	0.0626
in n-propanol	0.00541	0.00743	0.0102	0.0144	0.02	0.0265	0.0346	0.049
in sec-butanol	0.00259	0.00378	0.0056	0.00842	0.012	0.0182	0.0257	0.0388
